Drawing on PubChem BioAssay (NCI), this text covers GI50 and TGI for 17 compounds.

Among the test systems are HOP-92 NSCLC; SF-268 CNS; SF-295 CNS; KM12 colon; OVCAR-5 ovarian; A549 NSCLC; NCI/ADR-RES ovarian; SW-620 colon; COLO 205 colon; RXF 393 renal.
What all share (assay): growth of human tumour cells (NCI), 48 h

Values joined by “and” are separate entries in the source; they are usually repeats but may differ in a detail not shown here. Equal entries are not always repeated.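 Protocol summary: plate cells (96-well), add compound at 5 concentrations, incubate 48 h, interpolate endpoints linearly. Abbreviation: GI50, concentration required for 50% inhibition of growth. The concentration for full growth arrest is given as TGI.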

In the case of `Cc1ccc2c(c1)[n+](=O)c(C(=O)c1cccs1)c(C(F)(F)F)n2[O-]`, the GI50 with HOP-92 NSCLC was 1630 nM and 1780 nM; in the experiment on SF-268 CNS it was 0.881 µM and 0.108 µM; in the experiment on SF-295 CNS, 786 nM and 842 nM; in the experiment on KM12 colon it was 0.849 µM and 1.4 µM; in the experiment on OVCAR-5 ovarian, 1.58 µM and 1.57 µM; in the experiment with A549 NSCLC, 1.72 µM and 0.764 µM. The GI50 in the experiment on NCI/ADR-RES ovarian was 1.14 µM and 0.524 µM; in the experiment with SW-620 colon, 2.02 µM and 3.58 µM; with COLO 205 colon, 1.47 µM and 0.842 µM. For the same compound, the TGI in the experiment on HOP-92 NSCLC is 11.5 µM and 15.3 µM; in the experiment with SF-268 CNS it was 3.31 µM and 0.511 µM; in the experiment on SF-295 CNS, 2.46 µM and 5.87 µM; in the experiment on KM12 colon, 3.79 µM and 16.3 µM; with OVCAR-5 ovarian, 7.48 µM and 12.9 µM; with A549 NSCLC, 20.9 µM and 10.8 µM. In addition, the TGI in the experiment with NCI/ADR-RES ovarian was 10.3 µM and 10.1 µM; in the experiment with SW-620 colon, 50 µM and 20.4 µM; in the experiment with COLO 205 colon it was 7.68 µM and 10.9 µM.
Turning to `Nc1n[n+]([O-])c2cc([N+](=O)[O-])ccc2[n+]1[O-]`, the TGI was 22.5 µM in the experiment with SF-295 CNS; 42.2 µM with OVCAR-5 ovarian; 44.6 µM in the experiment on A549 NSCLC; 32.8 µM with NCI/ADR-RES ovarian; over 100 µM with SW-620 colon; 19 µM in the experiment with COLO 205 colon.
As to `CCCCCC/C=C/C#CCCCCCCCC(=O)O`, the TGI with HOP-92 NSCLC, in the experiment with SF-268 CNS, with SF-295 CNS, with KM12 colon, in the experiment on OVCAR-5 ovarian and with A549 NSCLC was over 100 µM in each case. The TGI in the experiment with NCI/ADR-RES ovarian, in the experiment on SW-620 colon and in the experiment on COLO 205 colon was over 100 µM throughout.
On to `CCN(CC)CCNc1c2ccccc2nc2cccc([N+](=O)[O-])c12`, for which the TGI in the experiment on HOP-92 NSCLC was 0.0261 µM; in the experiment with SF-268 CNS it was 0.056 µM and 0.42 µM; in the experiment on SF-295 CNS, 0.0342 µM and 0.0643 µM; with OVCAR-5 ovarian it was 0.0302 µM; with RXF 393 renal it was 0.0351 µM and 0.0112 µM; with A549 NSCLC, 0.018 µM and 0.0391 µM. Also, the TGI with NCI/ADR-RES ovarian is 0.034 µM; in the experiment on SW-620 colon, 0.0395 µM and 0.172 µM; in the experiment on COLO 205 colon, 0.0176 µM. Besides, the figures for the GI50 in the experiment on SF-268 CNS and in the experiment with SF-295 CNS were 0.0193 µM and 15 nM, respectively.
Consider `O=C(NC1CCN(Cc2ccccc2)CC1)c1cc(-c2cccnc2)nc2ccc(Cl)cc12`, for which the GI50 in the experiment with SF-268 CNS was 9.27 µM; in the experiment with SF-295 CNS, 10600 nM; in the experiment on KM12 colon, 13.7 µM; in the experiment with OVCAR-5 ovarian, 10.8 µM; in the experiment with RXF 393 renal, 4.18 µM; in the experiment on A549 NSCLC, 4.61 µM. Besides, the values for the GI50 with NCI/ADR-RES ovarian, in the experiment with SW-620 colon and in the experiment with COLO 205 colon were 15.6 µM, 11.5 µM and 5.28 µM, respectively. Also, the TGI with SF-268 CNS is 70.1 µM; in the experiment with SF-295 CNS it was 26 µM; in the experiment with KM12 colon, over 100 µM; in the experiment with OVCAR-5 ovarian, over 100 µM; with RXF 393 renal, 19.4 µM; with A549 NSCLC, 44.8 µM. Also, the TGI in the experiment with NCI/ADR-RES ovarian, with SW-620 colon and with COLO 205 colon was over 100 µM each time.
As for `N#CCc1c(F)c(F)c(F)c(F)c1F`, the TGI with SF-268 CNS, in the experiment with SF-295 CNS, in the experiment with KM12 colon, with OVCAR-5 ovarian, in the experiment with RXF 393 renal and in the experiment with A549 NSCLC was over 100 µM throughout. The TGI with NCI/ADR-RES ovarian, in the experiment with SW-620 colon and with COLO 205 colon was over 100 µM in each case.
Regarding `O=C1NC(=O)C(C(=O)C(=O)Nc2cc(Cl)ccc2Cl)C(=O)N1`, the TGI in the experiment with HOP-92 NSCLC, in the experiment with SF-268 CNS, with SF-295 CNS, in the experiment on KM12 colon, in the experiment with OVCAR-5 ovarian and in the experiment on RXF 393 renal was over 100 µM each time. For the same compound, the TGI in the experiment on A549 NSCLC, with SW-620 colon and with COLO 205 colon was over 100 µM in each case.
Take `CCCCCCCCSC(=O)NCCCC`: the TGI in the experiment on HOP-92 NSCLC is 53.9 µM; in the experiment on SF-268 CNS, over 100 µM; with SF-295 CNS, over 100 µM; in the experiment on KM12 colon, over 100 µM; in the experiment on OVCAR-5 ovarian, over 100 µM; with RXF 393 renal, 69.3 µM. Besides, the TGI in the experiment with A549 NSCLC, in the experiment with SW-620 colon and in the experiment with COLO 205 colon was over 100 µM in each case.
For `C=C1CCC2CC1C(C(=O)c1c[nH]c3ccccc13)=NC2(C)C` (centres undefined), the TGI in the experiment on SF-268 CNS, in the experiment on KM12 colon, with OVCAR-5 ovarian, with A549 NSCLC, in the experiment on NCI/ADR-RES ovarian and in the experiment with SW-620 colon was over 100 µM each time. Moreover, in the experiment on COLO 205 colon, the TGI is over 100 µM.
For the compound `OCC#CCOCC#Cc1ccccc1C#CCOCC#CCO`, the GI50 is 21800 nM in the experiment on HOP-92 NSCLC; 36.9 µM in the experiment with SF-268 CNS; over 100000 nM with SF-295 CNS; 35.1 µM in the experiment with KM12 colon; over 100 µM in the experiment on OVCAR-5 ovarian; 28.8 µM in the experiment with RXF 393 renal. Moreover, the results for the GI50 with A549 NSCLC, with NCI/ADR-RES ovarian and with SW-620 colon were 50.9 µM, 46.6 µM and 58.9 µM, respectively. Besides, the TGI in the experiment with HOP-92 NSCLC is over 100 µM; with SF-268 CNS, over 100 µM; in the experiment on SF-295 CNS, over 100 µM; in the experiment on KM12 colon, over 100 µM; with OVCAR-5 ovarian it was over 100 µM; in the experiment on RXF 393 renal, 82.4 µM. In addition, the TGI with A549 NSCLC, in the experiment on NCI/ADR-RES ovarian and in the experiment with SW-620 colon was over 100 µM each time.
Take `O/N=C1/CCCC/C1=C/C=C/c1ccccc1`: the TGI with HOP-92 NSCLC came to 36.7 µM; with SF-268 CNS, 47.1 µM; in the experiment with SF-295 CNS, 69.8 µM; with KM12 colon, 47.1 µM; in the experiment on OVCAR-5 ovarian it was 76 µM; in the experiment with RXF 393 renal it was 41.5 µM. In addition, the TGI in the experiment with A549 NSCLC worked out at 54.9 µM; with SW-620 colon, 77.1 µM; with COLO 205 colon, 35.4 µM.
Consider `C[C@@H](O)[C@@H](C)Oc1nc(Nc2ccc(S(=N)(=O)C3CC3)cc2)ncc1C(F)(F)F` (some centres undefined), for which the GI50 was 26 nM with HOP-92 NSCLC; 0.03 µM in the experiment with SF-268 CNS; 31.2 nM in the experiment with SF-295 CNS; 0.0242 µM in the experiment with KM12 colon; 0.033 µM with OVCAR-5 ovarian; 0.0298 µM with A549 NSCLC. The GI50 is 0.132 µM with NCI/ADR-RES ovarian, 0.0281 µM in the experiment on SW-620 colon and 0.0158 µM with COLO 205 colon. Also, the TGI in the experiment on HOP-92 NSCLC was 0.0753 µM; in the experiment with SF-268 CNS, 0.726 µM; with SF-295 CNS, over 55.3 µM; with KM12 colon, 1.16 µM; in the experiment on OVCAR-5 ovarian, over 70.6 µM; in the experiment on A549 NSCLC it was 15.6 µM. Besides, the TGI in the experiment on NCI/ADR-RES ovarian stood at 28.5 µM; with SW-620 colon, 4.35 µM; in the experiment with COLO 205 colon, 0.0328 µM.
Take `NCCOc1ccc(/C(=C(/Cl)c2ccccc2)c2ccccc2)cc1`: the TGI worked out at 16.8 µM in the experiment with HOP-92 NSCLC; 29.8 µM in the experiment with SF-268 CNS; 28.9 µM in the experiment on SF-295 CNS; 16.7 µM with KM12 colon; 30.8 µM in the experiment with OVCAR-5 ovarian; 13.8 µM in the experiment with RXF 393 renal. For the same compound, the TGI in the experiment on A549 NSCLC came to 31.5 µM; in the experiment with SW-620 colon, 16.1 µM; in the experiment on COLO 205 colon it was 3.59 µM.
Turning to `O=CC(OC(=O)c1ccccc1)C(OC(=O)c1ccccc1)C(COC(c1ccccc1)(c1ccccc1)c1ccccc1)OC(=O)c1ccccc1` (centres undefined), the GI50 in the experiment with SF-268 CNS was 12.7 µM; with SF-295 CNS it was 23800 nM; in the experiment on KM12 colon, 14.3 µM; in the experiment with OVCAR-5 ovarian it was 21.6 µM; in the experiment on RXF 393 renal, 4.11 µM; in the experiment with A549 NSCLC, 22.1 µM. For the same compound, the GI50 with NCI/ADR-RES ovarian was 19.3 µM; in the experiment with SW-620 colon, 5.13 µM; in the experiment on COLO 205 colon, 11.8 µM. Besides, the TGI came to 32.3 µM in the experiment with SF-268 CNS; 73.5 µM with SF-295 CNS; 31 µM in the experiment on KM12 colon; 43.9 µM with OVCAR-5 ovarian; 21.1 µM with RXF 393 renal; 61.7 µM in the experiment with A549 NSCLC. Besides, the TGI stood at 45.4 µM with NCI/ADR-RES ovarian, 20.7 µM in the experiment with SW-620 colon and 25.4 µM in the experiment on COLO 205 colon.
Consider `Cc1cc2c(cc1Cl)SC(N(c1ccccc1Cl)S(=O)(=O)c1ccc(Br)s1)=NS2(=O)=O`, for which the GI50 with HOP-92 NSCLC was 6620 nM; in the experiment with SF-268 CNS it was 12.7 µM; in the experiment with SF-295 CNS it was 30700 nM; in the experiment with KM12 colon, 25.8 µM; in the experiment on OVCAR-5 ovarian it was 60 µM; in the experiment with A549 NSCLC it was 25.7 µM. The GI50 in the experiment with NCI/ADR-RES ovarian was 17.2 µM; in the experiment with SW-620 colon, 14.9 µM; with COLO 205 colon, 12.2 µM. The TGI in the experiment with HOP-92 NSCLC was 21.8 µM; in the experiment on SF-268 CNS it was 30.7 µM; in the experiment with SF-295 CNS it was over 100 µM; in the experiment with KM12 colon it was 83.4 µM; in the experiment on OVCAR-5 ovarian, over 100 µM; with A549 NSCLC, over 100 µM. In addition, the TGI in the experiment with NCI/ADR-RES ovarian is 41.3 µM; in the experiment with SW-620 colon it was 30.4 µM; in the experiment on COLO 205 colon it was 28 µM.
On to `Cc1ccccc1/C=C/c1csnn1`, for which the TGI in the experiment on HOP-92 NSCLC is over 100 µM; in the experiment on SF-268 CNS it was over 71.4 µM; in the experiment with SF-295 CNS, over 100 µM; with KM12 colon, over 100 µM; with OVCAR-5 ovarian, over 100 µM; in the experiment with RXF 393 renal, over 100 µM. The TGI was over 100 µM with A549 NSCLC, over 79.9 µM in the experiment on SW-620 colon and over 100 µM in the experiment on COLO 205 colon.
Regarding `C[N+]1=C(c2cccnc2/C=N/O)OCC1(C)C`, the TGI with HOP-92 NSCLC, in the experiment with SF-268 CNS, in the experiment with SF-295 CNS, with KM12 colon, in the experiment with OVCAR-5 ovarian and in the experiment with RXF 393 renal was over 100 µM in each case. In addition, the TGI in the experiment on A549 NSCLC, with SW-620 colon and with COLO 205 colon was over 100 µM each time.
